Assay results: patent US20100028259A1, “USE OF ORGANIC CATION TRANSPORTERS FOR CANCER DIAGNOSIS AND THERAPY” (The Regents of the University of California, priority 2006, published 2010)

Experiments:
MDCK-hOCT1 cells = assay: MTT drug sensitivity assay in MDCK-hOCT1 cells; assay type: cell-based, canine; conditions: same test conditions as oxaliplatin MTT assay in MDCK cells
Description: (§1) Cytotoxicity of the platinum-based compounds was measured by MTT (thiazolyl blue tetrazolium bromide) assay. Cells were seeded in 100 μl of the culture medium without any antibiotics in 96-well plates at a predetermined cell density. For HEK 293 cells, poly-D-lysine coated plates were used. […] For the OCT inhibitor studies, the inhibitors (i.e., disopyramide or cimetidine) were added to the medium at a specified concentration immediately before the addition of the platinum-based compounds. After incubation for a specified time period, the drug-containing medium was replaced with fresh, drug-free medium and the incubation was continued for a total of 72 hours (start from the addition of platinum-based compounds). Then, the MTT assay was performed similarly as described in Alley et al., Cancer Res., 48:589-601 (1988). […] The maximal cell growth was the cell growth in the medium without any platinum-based compounds; C is the concentration of the platinum-based compound, and γ is the slope factor.
(§2) Briefly, the cells were seeded in 96-well plates at a density of 5,000 cells/well for the transfected MDCK cells or 12,000 cells/well for the transfected HEK 293 cells. The platinum-based drugs were added on the following day. After the specified time periods of drug exposure, the drug-containing medium was replaced with fresh, drug-free medium, and the incubation was continued for a total of 72 hours (start from the time when the drug was added). After incubation, the cell growth was determined by an MTT assay. Data are expressed as mean±SD from 3 to 6 independent experiments with each performed in quadruplicate. The resistance factor (RF) was defined as the ratio of the mean IC50 value in the MOCK cells to that in the OCT-transfected cells.
Briefly, MDCK cells were seeded at a density of 5,000 cells/well in 96-well plates and exposed to the test compounds for 7 hours on the following day. After incubation for a total of 72 hours, the cell growth was determined by an MTT assay. The data for carboplatin was taken from Table 1 and was not determined simultaneously with the other compounds. The resistance factor (RF) was defined as the ratio of the mean IC50 value in MDCK-MOCK cells to that in MDCK-hOCT1 cells. Data are expressed as mean±SD from six measurements, and each measurement was performed in quadruplicate.

human OCT1 = molecular target: T1, human OCT1 (Homo sapiens, UniProt O15245); assay: Cellular uptake of TEA in MDCK-hOCT1 cells, OCT inhibitor; assay type: cell-based, canine; conditions: inhibitor 120 μM
T1 construct: stably transfected with the full length human OCT1 cDNA (MDCK-hOCT1); expressed in transfected cells
T1 sequence (O15245 1-554): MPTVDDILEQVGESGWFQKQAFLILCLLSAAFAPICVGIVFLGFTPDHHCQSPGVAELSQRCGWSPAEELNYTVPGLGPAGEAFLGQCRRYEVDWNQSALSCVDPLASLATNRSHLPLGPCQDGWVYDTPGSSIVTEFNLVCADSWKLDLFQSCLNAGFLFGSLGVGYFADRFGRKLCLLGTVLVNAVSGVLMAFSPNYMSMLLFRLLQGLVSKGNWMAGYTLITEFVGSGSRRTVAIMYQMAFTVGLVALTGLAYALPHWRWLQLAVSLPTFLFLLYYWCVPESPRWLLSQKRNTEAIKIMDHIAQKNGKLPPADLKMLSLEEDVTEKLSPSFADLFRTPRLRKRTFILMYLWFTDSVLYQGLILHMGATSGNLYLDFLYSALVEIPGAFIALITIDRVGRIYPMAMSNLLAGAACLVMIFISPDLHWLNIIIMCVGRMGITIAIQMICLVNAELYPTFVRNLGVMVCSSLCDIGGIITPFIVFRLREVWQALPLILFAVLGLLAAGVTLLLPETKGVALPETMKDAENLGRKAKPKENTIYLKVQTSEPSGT
Description: (§3) (A) The expression of human OCT1, OCT2, or OCT3 was determined in the cell lines stably transfected with human OCTs (MDCK-hOCT1, HEK-hOCT2, or HEK-hOCT3) or the corresponding empty vectors (MOCK cells) by RT-PCR as described in Example 1. The dog and human GAPDH were used as the expression control for the transfected MDCK and HEK 293 cells, respectively. Lanes 1-6: MDCK-MOCK, MDCK-hOCT1, HEK-MOCK, HEK-hOCT2, HEK-MOCK, and HEK-hOCT3. (B) The cellular uptake of model substrates (TEA for human OCT1 and OCT2; MPP^+ for human OCT3) was determined in OCT-transfected cells (solid bars) and in the corresponding MOCK cells (open bars). Disopyramide (120 μM) was used as an inhibitor for human OCT1 and cimetidine (1.5 mM) was used as an inhibitor for human OCT2 and OCT3. Data are expressed as mean±SD of six measurements.
(§4) MDCK or HEK 293 cells were grown in 24-well plates to >90% confluence in the culture medium without any antibiotics. The poly-D-lysine coated plates were used for HEK 293 cells. The cells were washed with 1×PBS first and then incubated in the uptake buffer (1×PBS) containing 10 μM ^14C-TEA or 2 μM ^3H-MPP^+ as specified. For the OCT inhibitor studies, the indicated OCT inhibitor (i.e., disopyramide or cimetidine) was added to the uptake buffer at specified concentration together with the radioactive substrate. […]

human OCT3 = human OCT3 (Homo sapiens, UniProt O75751); conditions: inhibitor 1.5 mM
Description: as §3, §4

human OCT2 = human OCT2 (Homo sapiens, UniProt O15244); conditions: inhibitor 1.5 mM
Description: as §3, §4

HEK-hOCT2 cells = assay: MTT drug sensitivity assay in HEK-hOCT2 cells; assay type: cell-based, human; conditions: same test conditions as oxaliplatin MTT assay in HEK cells
Description: as §1, §2

Chain of human OCT2 (O15244 whole entry): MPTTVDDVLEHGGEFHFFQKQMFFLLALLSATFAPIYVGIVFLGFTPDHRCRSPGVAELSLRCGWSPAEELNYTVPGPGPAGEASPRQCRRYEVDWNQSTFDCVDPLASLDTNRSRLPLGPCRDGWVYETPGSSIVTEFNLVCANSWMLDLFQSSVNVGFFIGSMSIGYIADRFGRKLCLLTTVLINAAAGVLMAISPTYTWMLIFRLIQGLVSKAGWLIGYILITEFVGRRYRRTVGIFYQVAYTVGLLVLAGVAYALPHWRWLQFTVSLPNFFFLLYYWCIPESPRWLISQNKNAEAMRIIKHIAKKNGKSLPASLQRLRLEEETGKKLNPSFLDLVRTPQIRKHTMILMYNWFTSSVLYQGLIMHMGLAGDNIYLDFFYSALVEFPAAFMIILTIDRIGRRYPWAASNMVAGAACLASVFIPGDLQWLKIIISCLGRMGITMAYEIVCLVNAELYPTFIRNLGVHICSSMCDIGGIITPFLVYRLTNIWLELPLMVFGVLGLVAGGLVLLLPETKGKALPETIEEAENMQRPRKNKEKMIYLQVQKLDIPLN
Chain of human OCT3 (O75751 whole entry): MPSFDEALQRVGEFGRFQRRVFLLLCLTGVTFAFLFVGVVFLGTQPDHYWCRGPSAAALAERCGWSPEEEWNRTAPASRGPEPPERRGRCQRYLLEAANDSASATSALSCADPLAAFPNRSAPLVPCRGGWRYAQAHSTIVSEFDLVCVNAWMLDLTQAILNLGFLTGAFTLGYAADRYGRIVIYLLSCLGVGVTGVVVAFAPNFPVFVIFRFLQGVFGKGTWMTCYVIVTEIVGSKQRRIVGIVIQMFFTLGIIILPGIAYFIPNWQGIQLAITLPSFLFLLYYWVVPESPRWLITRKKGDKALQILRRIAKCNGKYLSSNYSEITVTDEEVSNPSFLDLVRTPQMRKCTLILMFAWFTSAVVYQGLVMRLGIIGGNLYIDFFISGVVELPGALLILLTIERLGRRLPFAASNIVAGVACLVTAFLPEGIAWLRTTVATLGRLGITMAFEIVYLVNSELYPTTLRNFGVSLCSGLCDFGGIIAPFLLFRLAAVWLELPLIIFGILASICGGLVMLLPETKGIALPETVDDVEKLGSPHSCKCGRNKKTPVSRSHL

Row | Structure (SMILES) | cytotoxicity of the OCT inhibitor itself (no cytotoxicity up to a concentration of) (MDCK-hOCT1 cells) | effect on uptake of TEA in MDCK-hOCT1 (human OCT1) | effect on uptake of MPP+ in HEK-hOCT3 (human OCT3) | effect on uptake of TEA in HEK-hOCT2 (human OCT2) | cytotoxicity of the OCT inhibitor itself (no cytotoxicity up to a concentration of) (HEK-hOCT2 cells)
1 | CC(C)N(CCC(C(N)=O)(c1ccccc1)c1ccccn1)C(C)C (centres unmarked) [disopyramide] | > 400 µM | substantially decreased |  |  | 
2 | CN/C(=N/CCSCc1nc[nH]c1C)NC#N [cimetidine] |  |  | substantially decreased | substantially decreased | > 5 mM
